Data as given in patent US6482921B1, “Uridyl peptide antibiotic (UPA) derivatives, their synthesis and use” (Essential Therapeutics, Inc., priority 1999, dated 2002).
In brackets after ≈: the same amount, converted by molar mass.

What was measured:
Type in all cases: cell-based
[1] = system: Escherichia Coli MC 4100; assay: MIC broth microdilution, E. coli MC 4100 (wild type); conditions: E. coli MC 4100
[2] = system: Pseudomonas aeruginosa PAM 1135; assay: MIC broth microdilution, P. aeruginosa PAM 1135 (high level UPA resistance); conditions: P. aeruginosa PAM 1135 UPA1^r
[3] = system: Escherichia Coli MC 4100 AcrAB UPA3r; assay: MIC broth microdilution, E. coli MC 4100 AcrAB UPA3r (ΔAcrAB, UPA resistant); conditions: E. coli AcrAB UPA3^r
[4] = system: Pseudomonas aeruginosa PAM 1154; assay: MIC broth microdilution, P. aeruginosa PAM 1154 (OprM::Hg); conditions: P. aeruginosa PAM 1154 OprM::Hg
[5] = system: Staphylococcus aureus 8325-4; assay: MIC broth microdilution, S. aureus 8325-4 (wild type); conditions: S. aureus 8325-4
[6] = system: Pseudomonas aeruginosa PAM 1020; assay: MIC broth microdilution, P. aeruginosa PAM 1020 (wild type); conditions: P. aeruginosa PAM 1020
[7] = system: Escherichia Coli MC 4100 AcrAB; assay: MIC broth microdilution, E. coli MC 4100 AcrAB (ΔAcrAB); conditions: E. coli AcrAB
[8] = system: Pasteurella multocida pm002; assay: MIC broth microdilution, P. multocida pm002 (wild type)
[9] = system: Staphylococcus aureus ATCC 29213; assay: MIC broth microdilution, S. aureus ATCC 29213 (wild type); conditions: S. aureus ATCC 29213
[10] = system: Pseudomonas aeruginosa PAM 1323; assay: MIC broth microdilution, P. aeruginosa PAM 1323 (medium level UPA resistance)

Row | Compound | MIC (μg/ml) Broth microdilution [1] [µg/mL] | MIC (μg/ml) Broth microdilution [2] [µg/mL] | MIC (μg/ml) Broth microdilution [3] [µg/mL] | MIC (μg/ml) Broth microdilution [4] [µg/mL] | MIC (μg/ml) Broth microdilution [5] [µg/mL] | MIC (μg/ml) Broth microdilution [6] [µg/mL] | MIC (μg/ml) Broth microdilution [7] [µg/mL] | MIC (μg/ml) Broth microdilution [8] [µg/mL] | MIC (μg/ml) Broth microdilution [9] [µg/mL] | MIC (μg/ml) Broth microdilution [10] [µg/mL]
1 | CC(C(NC(=O)C(Cc1ccc(F)cc1)NC(=O)NC(Cc1ccc(O)cc1)C(=O)O)C(=O)NCC1CC(O)C(n2ccc(=O)[nH]c2=O)O1)N(C)C(=O)CN [Compound 129, 1-[5′-[(2S,3S)-N^2-[N-[[(1S)-1-Carboxy-4-hydroxyphenethyl)-L-4-fluorophenylalanyl]-N^3-glycyl-N^3-methyl-2,3-diaminobutyramido]-3′,5′-dideoxy-α-L-arabinofuranosyl]uracil] | 8 (≈ 10.4 µM) | >512 | 2 (≈ 2.59 µM) | 8 (≈ 10.4 µM) | 512 (≈ 664 µM) | 32 (≈ 41.5 µM) | <1 | 256 (≈ 332 µM) | >512 | >512
2 | CC(C(NC(=O)C(Cc1ccccc1)NC(=O)NC(Cc1c[nH]c2ccccc12)C(=O)O)C(=O)NCC1CC(O)C(n2ccc(=O)[nH]c2=O)O1)N(C)C(=O)C(N)Cc1ccc(F)cc1 [Compound 114, 1-[5′-((2S,3S)-N^2-[N-[[(1S)-1-Carboxy-2-indol-3-ylethyl]carbamoyl]-L-phenylalanyl]-N^3-L-4-fluorophenylalanyl-N^3-methyl-2,3-diaminobutyramidol-3′,5′-dideoxy-α-L-arabinofuranosyl]uracil] | 512 (≈ 579 µM) | 256 (≈ 290 µM) | 512 (≈ 579 µM) | 16 (≈ 18.1 µM) | >512 | 16 (≈ 18.1 µM) | 8 (≈ 9.05 µM) | 256 (≈ 290 µM) | >512 | 256 (≈ 290 µM)
3 | CC(NC(=O)NC(Cc1c[nH]c2ccccc12)C(=O)O)C(=O)NC(C(=O)NCC1CC(O)C(n2ccc(=O)[nH]c2=O)O1)C(C)N(C)C(=O)CN [Compound 121, 1-[5′1-[(2S,3S)-N^2-[N-[[(1S)-1-Carboxy-2-indol-3-ylethyl)carbamoyl]-L-alanyl]-N^3-glycyl-N^3-methyl-2,3-diaminobutyramido]-3′,5′-dideoxy-α-L-arabinofuranosyl]uracil] | >512 | >512 | 16 (≈ 22.9 µM) | 4 (≈ 5.72 µM) | >512 | 64 (≈ 91.5 µM) | 2 (≈ 2.86 µM) | >512 | >512 | >512
4 | C[C@H](N)C(=O)N(C)[C@@H](C)[C@H](NC(=O)[C@H](Cc1ccc(F)c(F)c1)NC(=O)N[C@@H](Cc1ccc(O)cc1)C(=O)O)C(=O)NC[C@H]1C[C@@H](O)[C@H](n2ccc(=O)[nH]c2=O)O1 [Compound 144, 1-[5′-[(2S,3S)-N^3-L-Alanyl-N^2-[N-[[(1S)-1-carboxy-4-hydroxyphenethyl]carbamoyl]-L-(3,4)-difluorophenylalanyl]-N^3-methyl-2,3-diaminobutyramido)-3′,5′-dideoxy-α-L-arabinofuranosyl]uracil] | 4 (≈ 4.98 µM) | >512 | <1 | 8 (≈ 9.97 µM) | 512 (≈ 638 µM) | 64 (≈ 79.7 µM) | <1 | 256 (≈ 319 µM) | >512 | >512
5 | C[C@H](N)C(=O)N(C)[C@@H](C)[C@H](NC(=O)[C@H](Cc1ccc2ccccc2c1)NC(=O)N[C@@H](Cc1c[nH]c2ccccc12)C(=O)O)C(=O)NC[C@H]1C[C@@H](O)[C@H](n2ccc(=O)[nH]c2=O)O1 [Compound 153] | 512 (≈ 610 µM) | >512 | 128 (≈ 152 µM) | 16 (≈ 19 µM) | 256 (≈ 305 µM) | 128 (≈ 152 µM) | 2 (≈ 2.38 µM) | 64 (≈ 76.2 µM) | 512 (≈ 610 µM) | >512
6 | CC(C(NC(=O)C(Cc1ccccc1)NC(=O)NC(Cc1ccc(O)cc1)C(=O)O)C(=O)NCC1CC(O)C(n2ccc(=O)[nH]c2=O)O1)N(C)C(=O)C(N)Cc1ccccc1 [Compound 100, 1-[5′-[(2S,3S)-N^2-[N-[[(1S)-1-Carboxy-4-hydroxyphenethyl]carbamoyl]-L-phenylalanyl]-N^3-L-phenylalanyl-N^3-methyl-2,3-diaminobutyramido]-3′,5′-dideoxy-α-L-arabinofuranosyl]uracil] | 8 (≈ 9.49 µM) | >512 | 2 (≈ 2.37 µM) | 8 (≈ 9.49 µM) | 512 (≈ 607 µM) | 32 (≈ 38 µM) | <1 | 256 (≈ 304 µM) | >512 | >512
7 | CC(N)C(=O)N(C)C(C)C(NC(=O)C(Cc1ccccc1)NC(=O)NC(Cc1ccccc1)C(=O)O)C(=O)NCC1CC(O)C(n2ccc(=O)[nH]c2=O)O1 [Compound 122, 1-[5′-[[(2S,3S)-N^3-L-Alanyl-N^2-[N-[[(1S)-1-carboxy-phenethyl]carbamoyl]-L-phenylalanyl]-N^3-methyl-2,3-diaminobutyramido]-3′,5′-dideoxy-α-L-arabinofuranosyl]uracil] | >512 | >512 | 64 (≈ 85.2 µM) | 16 (≈ 21.3 µM) | 512 (≈ 682 µM) | 64 (≈ 85.2 µM) | 4 (≈ 5.33 µM) | >512 | >512 | >512
8 | CC(C)CC(N)C(=O)N(C)C(C)C(NC(=O)C(Cc1ccccc1)NC(=O)NC(Cc1ccc(O)cc1)C(=O)O)C(=O)NCC1CC(O)C(n2ccc(=O)[nH]c2=O)O1 [Compound 101, 1-[5′-[(2S,3S)-N^2-[N-[[(1S)-1-Carboxy-4-hydroxyphenethyl]carbamoyl]-L-phenylalanyl]-N^3-L-leucyl-N^3-methyl-2,3-diaminobutyramido]-3′,5′-dideoxy-α-L-arabinofuranosyl]uracil] | >512 | >512 | 128 (≈ 158 µM) | 8 (≈ 9.89 µM) | >512 | 128 (≈ 158 µM) | 2 (≈ 2.47 µM) | >512 | >512 | >512
9 | CC(C)CC(N)C(=O)N(C)C(C)C(NC(=O)C(CC(C)C)NC(=O)NC(Cc1c[nH]c2ccccc12)C(=O)O)C(=O)NCC1CC(O)C(n2ccc(=O)[nH]c2=O)O1 [Compound 108, 1-[5′[(2S,3S)-N^2-[N-[[(1S)-1-Carboxy-2-indol-3-ylethyl]carbamoyl]-L-leucyl]-N^3-L-leucyl-N^3-methyl-2,3-diaminobutyramido]-3′,5′-dideoxy-α-L-arabinofuranosyl]uracil] | 256 (≈ 321 µM) | >512 | 16 (≈ 20.1 µM) | 32 (≈ 40.1 µM) | >512 | 256 (≈ 321 µM) | <1 | 512 (≈ 642 µM) | >512 | 512 (≈ 642 µM)
